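Cells were grown in 96-well plates and exposed to each compound for 48 hours at five concentrations; endpoints were interpolated linearly between bracketing concentrations, or set to the highest concentration if not reached. Definition used: TGI = concentration required for complete inhibition of growth.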 Where a SMILES comes first, the peptide text is derived from it. [ ]: non-standard residue; d: D form. The star is where a group is joined. ξ: configuration not given here. ξPhe(4-NO2) = NC(Cc1ccc([N+](=O)[O-])cc1)C(=O)O; Boc = CC(C)(C)OC(=O)*; OBn = c1ccc(CO*)cc1
Key:
Assay in all cases: NCI tumour cell line growth inhibition, 48 h
SN12C renal = system: SN12C renal
K-562 leukemia = system: K-562 leukemia
M14 melanoma = system: M14 melanoma
HCT-116 colon = system: HCT-116 colon
KM12 colon = system: KM12 colon
A498 renal = system: A498 renal
RPMI-8226 leukemia = system: RPMI-8226 leukemia
SF-295 CNS = system: SF-295 CNS
OVCAR-5 ovarian = system: OVCAR-5 ovarian
IGROV1 ovarian = system: IGROV1 ovarian
PC-3 prostate = system: PC-3 prostate
HCT-15 colon = system: HCT-15 colon
HCC-2998 colon = system: HCC-2998 colon
SF-539 CNS = system: SF-539 CNS
NCI-H460 lung = system: NCI-H460 lung

Compound | TGI (SN12C renal) [µM] | TGI (K-562 leukemia) [µM] | TGI (M14 melanoma) [µM] | TGI (HCT-116 colon) [µM] | TGI (KM12 colon) [µM] | TGI (A498 renal) [µM] | TGI (RPMI-8226 leukemia) [µM] | TGI (SF-295 CNS) [µM] | TGI (OVCAR-5 ovarian) [µM] | TGI (IGROV1 ovarian) [µM] | TGI (PC-3 prostate) [µM] | TGI (HCT-15 colon) [µM] | TGI (HCC-2998 colon) [µM] | TGI (SF-539 CNS) [µM] | TGI (NCI-H460 lung) [µM]
O=c1oc2ccccc2cc1-c1nnc(-c2ccccc2)s1 | > 100 | > 100 | > 100 | > 100 | 36.2 | 43.6 | > 100 | > 71 | > 100 | > 66.3 | > 100 | > 100 | > 100 | > 41.8 | > 100
O=C1SC(c2ccc(Cl)cc2)(c2ccc(Cl)cc2)c2ccccc21 | > 100 | > 100 | > 100 | 55.3 | > 100 | > 100 | > 100 | > 100 | > 100 | > 100 | > 100 | > 100 | > 100 | > 100 | > 100
CC(C)(C)OC(=O)NC(Cc1ccc([N+](=O)[O-])cc1)C(=O)NCC(=O)OCc1ccccc1 (stereo unspecified) (Boc-[ξPhe(4-NO2)]-Gly-OBn) | 45.9 | 52.3 | 37.6 | 68.2 | 59 | > 100 | 45.9 | 40.2 | > 100 | > 100 | 49.6 | 41.9 | 42 |  | 49.4
C=C(C)[C@@H]1CC[C@@H](C)[C@](O)([C@@H]2C[C@@H]([C@H](COC(=O)c3ccccc3)OC(=O)c3ccccc3)OC2=O)C1 | > 100 | > 100 | > 100 | > 100 | > 100 | > 100 | > 100 | > 100 | > 100 | > 100 | > 100 | > 100 | > 100 | > 100 | > 100
Cc1cn(CC2=NCC(C)(C)CN2)c(=O)[nH]c1=O | > 100 |  | > 100 | > 100 |  | > 100 |  | > 100 | > 100 | > 100 | > 100 | > 100 | > 100 |  | > 100
COC1C=C(NCC2(CO)CCC2)NC(N)=N1 (stereo unspecified) | > 100 | > 100 | > 100 | > 100 | > 100 | > 100 | > 100 | > 100 | > 100 | > 100 | > 100 | > 100 | > 100 |  | > 100
CCCCCC(=O)OCC(=O)[C@H]1[C@H](C)C[C@H]2[C@@H]3C[C@H](F)C4=C/C(=N/OC(=O)c5cccc6c(=O)c7ccccc7[nH]c56)C=C[C@]4(C)[C@H]3[C@@H](O)C[C@@]21C | > 100 | > 100 | 77.9 | 85.3 | 27.3 |  | 14.9 | > 100 | > 100 | > 100 | 53.8 | > 100 | 82.4 | > 100 | 
COc1cc(C)cc2c1C(=O)C(Br)=CC2=O | 30.9 |  | 14.1 | 18.6 | 28.8 | 34.5 |  | 30 | 36.6 | 31.7 | 31.3 | 40.6 | 35 | 28.5 | 38.4
CC1(C)CCCCCCCCCC(C)(CCCO)C1=O (stereo unspecified) | 32.2 | 73.7 | 27.4 | 31.2 | 33 | 33.1 | 84.8 | 32.7 | 28.8 | 31.4 | 27 | 31.8 | 33.7 |  | 33.6
CN(C)c1ncnc2c1ncn2C1C=CC(COS(N)(=O)=O)C1 (stereo unspecified) | > 100 | > 100 | > 100 | > 100 | > 100 | > 100 | > 100 | > 100 |  | > 100 | > 100 | > 100 | > 100 | > 100 | > 100
Cn1c2ccccc2c(=O)c2c(O)cc3c(c21)C=CC1(CCCC1)O3 | > 100 |  | > 100 | > 100 | > 100 | > 100 | > 100 | > 100 | > 100 | > 100 | > 100 | > 100 | > 100 | > 100 | > 100
Cc1ccc(S(=O)(=O)[N-]C2C(=O)c3ccccc3C(=O)C2[n+]2cccc(C(N)=O)c2)cc1 (stereo unspecified) | > 100 | > 100 | > 100 | 36 | > 100 |  | > 100 | > 100 | > 100 | > 100 | > 100 | > 100 | > 100 | > 100 | > 100
CCOc1ccc(N/C(=C(/C(Cl)=C(/Cl)NCCO)[N+](=O)[O-])n2nnc3ccccc32)cc1 | 49.1 | > 100 | > 100 | > 100 | > 100 | > 100 | > 100 | > 100 | > 100 |  | 86.4 | 43.3 | > 100 | 93 | > 100
COC(=O)/C(C#N)=C1\NC(=O)CC(c2ccccc2)C1C#N (stereo unspecified) | > 100 | > 100 | > 100 | > 100 | > 100 |  | > 100 | > 100 | > 100 | > 100 | > 100 | > 100 | > 100 | > 100 | > 100
Nc1nc(N)nc(-c2cnccn2)n1 | > 100 | > 100 | > 100 | > 100 | > 100 | > 100 |  | > 100 | > 100 | > 100 | > 100 | > 100 | > 100 | > 100 | > 100
CS(=O)(=O)c1[nH]nc2[nH]c(=O)[nH]c(=O)c12 | > 10 |  | > 10 | > 10 | > 10 | > 10 |  | > 10 | > 10 | > 10 | > 10 | > 10 | > 10 | > 10 | > 10

Reference: PubChem BioAssay (NCI)
